Laboratory results taken from BindingDB's records for doi:10.1021/ja0296733 (Abbott Laboratories, 2003).

Tests used:
[1] = target: T1, Tyrosine-protein phosphatase non-receptor type 2 (Homo sapiens, UniProt P17706); experiment: PTP1B and TCPTP Inhibition Assay; conditions: pH 7.5; 22 °C
T1 sequence (P17706 whole entry): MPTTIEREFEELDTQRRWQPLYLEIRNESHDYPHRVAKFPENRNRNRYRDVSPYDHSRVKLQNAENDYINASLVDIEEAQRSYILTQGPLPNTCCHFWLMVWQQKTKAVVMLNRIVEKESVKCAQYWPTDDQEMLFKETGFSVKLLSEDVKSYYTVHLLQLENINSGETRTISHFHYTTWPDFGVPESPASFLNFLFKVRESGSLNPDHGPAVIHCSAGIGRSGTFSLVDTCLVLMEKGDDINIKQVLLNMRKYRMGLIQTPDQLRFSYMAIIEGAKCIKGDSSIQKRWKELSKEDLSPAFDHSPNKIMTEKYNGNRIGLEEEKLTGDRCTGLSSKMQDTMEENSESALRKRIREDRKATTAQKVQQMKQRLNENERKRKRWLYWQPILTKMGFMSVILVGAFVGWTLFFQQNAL
Protocol: (§1) For each concentration of test compound or DMSO control, the initial rates were used to fit the rectangular hyperbola of Michaelis-Menten by nonlinear regression analysis. The ratio of the apparent Km/Vmax vs inhibitor concentration was plotted, and the Ki was calculated by linear regression to be the negative X-intercept.

[2] = target: T2, Tyrosine-protein phosphatase non-receptor type 1 [1-298] (Homo sapiens, UniProt P18031); experiment: PTP1B and TCPTP Inhibition Assay; conditions: pH 7.5; 22 °C
T2 construct: 1-298
T2 sequence (P18031 whole entry): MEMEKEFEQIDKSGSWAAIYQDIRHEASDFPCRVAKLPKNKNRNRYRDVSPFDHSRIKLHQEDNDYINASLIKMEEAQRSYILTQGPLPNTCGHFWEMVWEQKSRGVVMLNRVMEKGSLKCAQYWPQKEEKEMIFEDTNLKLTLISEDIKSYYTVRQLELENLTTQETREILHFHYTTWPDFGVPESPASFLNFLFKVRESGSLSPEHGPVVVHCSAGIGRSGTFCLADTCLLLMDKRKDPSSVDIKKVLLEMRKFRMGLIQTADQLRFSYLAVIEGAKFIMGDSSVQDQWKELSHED
Protocol: as §1

| Ki [1] [µM] | Ki [2] [µM] | Structure (SMILES) |
| --- | --- | --- |
| 164 | 293 | Cc1cccc(N(C(=O)C(=O)O)c2ccccc2C(=O)O)c1C |
| 44 | – | O=C(O)C(=O)N(c1ccccc1C(=O)O)c1cccc2ccccc12 [2-(Naphthalen-1-yloxalylamino)benzoic Acid] |
| 0.049 | – | CC(=O)N[C@@H](Cc1ccc(N(C(=O)C(=O)O)c2ccccc2C(=O)O)c2ccccc12)C(=O)NCCCCCOc1cc2ccccc2cc1C(=O)O [3-({5-[(N-Acetyl-3-{4-[(carboxycarbonyl)(2-carboxyphenyl)amino]-1-naphthyl}-L-alanyl)amino]pentyl}oxy)-2-naphthoic Acid] |
